Measured values as given in patent US8815829B2, “3′-azido purine nucleotide prodrugs for treatment of viral infections” (priority 2008, dated 2014).
Where two headings read alike, the source gives them in different places.

Columns and labels:
Vero cells = assay: Cytotoxicity assay in Vero cells; type: cell-based; conditions: Chlorocebus sabaeus, Vero, read-out: Toxicity IC50 Vero
PBM cells [1] = assay: Cytotoxicity assay in PBM cells; type: cell-based, human; conditions: Homo sapiens, PBMC; Table 5; read-out: Toxicity IC50 PBM
CEM cells = assay: Cytotoxicity assay in CEM cells; type: cell-based, human; conditions: Homo sapiens, CCRF-CEM; Table 5; read-out: Toxicity IC50 CEM
HSV-1 = HSV-1 drug susceptibility assay; type: cell-based; conditions: Human alphaherpesvirus 1
Description: (§1) Agents Chemother. […] K., Otto, M. J., Schinazi, R. F. “Antiviral activities and cellular toxicities of modified 2′,3′-dideoxy-2′,3′-didehydrocytidine analogs” Antimicrob. Agents Chemother. 2002, 46, 3854-60. • ^cHSV-1 drug susceptibility assay was done as previously described in: Schinazi, R. F., Peters, J., Williams, C. C., Chance, D., Nahmias, A. J. “Effect of combinations of acyclovir with vidarabine or its 5′-monophosphate on herpes simplex virus in cell culture and in mice.” Antimicrob. Agents Chemother. 1982, 22, 499-507. • ^dHCV Replicon Assay^1: Huh 7 Clone B cells containing HCV Replicon RNA were seeded in a 96-well plate at 5000 cells/well, and the compounds were tested at 10 μM in triplicate immediately after seeding. Following five days incubation (37° C., 5% CO2), total cellular RNA was isolated by using versaGene RNA purification kit from Gentra. Replicon RNA and an internal control (TaqMan rRNA control reagents, Applied Biosystems) were amplified in a single step multiplex Real Time RT-PCR Assay. The antiviral effectiveness of the compounds was calculated by subtracting the threshold RT-PCR cycle of the test compound from the threshold RT-PCR cycle of the no-drug control (ΔCtHCV). A ΔCt of 3.3 equals a 1-log reduction (equal to 90% less starting material) in Replicon RNA levels. The cytotoxicity of the compounds was also calculated by using the ΔCt rRNA values. 77 (2′-Me-C) was used as the control. To determine EC90 and IC50 values^2, ΔCt: values were first converted into fraction of starting material^3 and then were used to calculate the % inhibition.

HCV Replicon RNA = assay: HCV Replicon Assay (Huh 7 Clone B cells); type: cell-based; conditions: Hepatitis C virus, Huh-7, 120 h, tested at 10 μM, five days
Description: as §1

HIV-2/pROD10 = assay: HIV-2 drug susceptibility in PBM cells; type: cell-based; conditions: Human immunodeficiency virus 2, PBMC
[2] = test system: HIV-1 Q151Mc (A62V/V75I/F77L/F116Y/Q151M); assay: microbe, parasite or virus in culture; type: cell-based; conditions: Human immunodeficiency virus 1, P4/R5, P4/R5 cells, mean ± standard deviation
Method: (§2) In a 96-well plate, two- or three-fold serial dilutions of an inhibitor were added to P4/R5 cells in triplicate. […] At 48 h post-infection, a cell lysis buffer and luminescent substrate (Gal-Screen; Tropix/Applied Biosystems) was added to each well, and relative light unit values were determined using a luminometer (ThermoLabSystems, Waltham, Mass.).
(§3) Virus stocks were prepared as described above. Drug susceptibility assays were performed using the single- and multiple-replication-cycle assays also described above.

HIV-1 L74V = assay: microbe, parasite or virus in culture; type: cell-based; conditions: Human immunodeficiency virus 1; P4/R5 cells, mean ± standard deviation
Method: as §2, §3

[3] = test system: HIV-1 AZT7 (M41L/D67N/K70R/T215F/K219Q); assay: microbe, parasite or virus in culture; type: cell-based; conditions: Human immunodeficiency virus 1; P4/R5 cells, mean ± standard deviation
Method: as §2, §3

[4] = test system: HIV-1 AZT9 (M41L/D67N/K70R/L210W/T215Y/K219Q); assay: microbe, parasite or virus in culture; type: cell-based; conditions: Human immunodeficiency virus 1; P4/R5 cells, mean ± standard deviation
Method: as §2, §3

[5] = test system: HIV-1 T69SSS (M41L/T69SSS/L210W/T215Y); assay: microbe, parasite or virus in culture; type: cell-based; conditions: Human immunodeficiency virus 1, P4/R5, P4/R5 cells, mean ± standard deviation
Method: as §2, §3

[6] = test system: HIV-1 AZT3 (M41L/L210W/T215Y); assay: microbe, parasite or virus in culture; type: cell-based; conditions: Human immunodeficiency virus 1; P4/R5 cells, mean ± standard deviation
Method: as §2, §3

HIV-1 K65R = assay: microbe, parasite or virus in culture; type: cell-based; conditions: Human immunodeficiency virus 1; P4/R5 cells, mean ± standard deviation
Method: as §2, §3

[7] = test system: HIV-1 AZT2 (D67N/K70R/T215F/K219Q); assay: microbe, parasite or virus in culture; type: cell-based; conditions: Human immunodeficiency virus 1; P4/R5 cells, mean ± standard deviation
Method: as §2, §3

HIV-1 M184V = assay: microbe, parasite or virus in culture; type: cell-based; conditions: Human immunodeficiency virus 1; P4/R5 cells, mean ± standard deviation
Method: as §2, §3

HIV-1/LAI = assay: Anti-HIV-1 assay in PBM cells; type: cell-based; conditions: Human immunodeficiency virus 1, PBMC, PBM cells; read-out: HIV-1/LAI (PBM) EC90
Method: Stock solutions (20-40 mM) of the compounds were prepared in sterile DMSO and then diluted to the desired concentration in growth medium. Cells were infected with the prototype HIV-1LAI at a multiplicity of infection of 0.01. Virus obtained from the cell supernatant was quantified on day 6 after infection by a reverse transcriptase assay using (rA)n·(dT)12-18 as template-primer. […] The antiviral EC50 and EC90 were obtained from the concentration-response curve using the median effective method described previously (see Chou T.-C. & Talalay P. Adv. Enzyme Regul. 1984, 22, 27-55; Belen'kii M. S. & Schinazi R. F. Antiviral Res. 1994, 25, 1-11).

WT (LAI) HIV-1 = assay: Single cycle assay in P4/R5 cells, WT HIV-1; type: cell-based; conditions: Human immunodeficiency virus 1, P4/R5, read-out: EC50 WT (LAI), P4/R5 cells, mean ± standard deviation
Method: as §2, §3

HBV = assay: Anti-HBV assay (AD-38 cell line); type: cell-based; conditions: Hepatitis B virus
Method: The anti-HBV activity of the compounds was determined by treating the AD-38 cell line carrying wild type HBV under the control of tetracycline (see Ladner S. K., Otto M. J., Barker C. S., Zaifert K., Wang G. H., Guo J. T., Seeger C. & King R. W. Antimicrob. Agents Chemother. 1997, 41, 1715-20). Removal of tetracycline from the medium [Tet (−)] results in the production of HBV. The levels of HBV in the culture supernatant fluids from cells treated with the compounds were compared with that of the untreated controls. Control cultures with tetracycline [Tet (+)] were also maintained to determine the basal levels of HBV expression.

PBM cells [8] = conditions: human, 4 h, 50 μM
MT-2 cells = assay: Intracellular nucleotides formed in MT-2 cells; type: in vitro ADME
adenosine deaminase = assay: Adenosine deaminase assay (deamination of nucleosides); type: in vitro ADME; conditions: 50 μM, pH 7.4
Method: In order to determine if these 6-substituted compounds are converted to G analogs by the enzyme adenosine deaminase, a series of enzyme kinetics experiments were undertaken.
To determine the propensity for deamination of the APN nucleosides by adenosine deaminase, nucleoside compounds were incubated with the commercially available purified enzyme, and the reaction was followed spectrophotometrically. Reaction conditions were 50 mM potassium phosphate, pH 7.4, with 50 μM APN nucleoside in 0.5 mL at 25° C. Reaction time was 7 minutes with 0.002 units of enzyme and 120 minutes with 0.2 units of enzyme. (The unit definition of adenosine deaminase is one unit will deaminate 1.0 μmol of adenosine to inosine per minute at pH 7.5 at 25° C.) Deoxyadenosine was the positive control which was 59% deaminated under the given conditions in 7 minutes with 0.002 units of enzyme. Deoxyguanosine was the negative control. Optical density was measured at 265 nm or 285 nm. The difference in optical density between the beginning and the end of the experiment was divided by the extinction coefficient then multiplied by the volume of the reaction to determine the number of mols of substrate transformed into product. Mols of product were divided by mols of substrate equivalent to a 100% complete reaction then multiplied by 100 to obtain percent deamination. The limit of detection was 0.001 optical density units.

Structure (SMILES)	IC50 (Vero cells; Table 5)	IC50 (PBM cells [1])	IC50 (CEM cells)	EC50 (HSV-1)	EC90 (HSV-1)	EC50 (HCV Replicon RNA)	EC90 (HCV Replicon RNA)	also measured
[N-]=[N+]=NC1C[C@H](n2cnc3c(NCCCCCO)nc(N)nc32)O[C@@H]1CO (stereo partly shown) [drawing 49]	> 100 µM	> 100 µM	> 100 µM	> 100 µM	> 100 µM	> 10 µM	> 10 µM	–
Cc1cn([C@H]2C[C@H](N=[N+]=[N-])[C@@H](CO)O2)c(=O)[nH]c1=O [AZT, 3′-azido-3′-deoxythymidine, reference compound]	–	> 100 µM	–	–	–	–	–	EC50 (HIV-2/pROD10): 0.0076 µM; EC90 (HIV-2/pROD10): 0.064 µM; EC50 [2]: > 90 µM; EC50 (HIV-1 L74V): 0.156 ± 0.03 µM; EC50 [3]: > 90 µM; EC50 [4]: > 90 µM; EC50 [5]: > 90 µM; EC50 [6]: 2.85 ± 0.88 µM; EC50 (HIV-1 K65R): 0.163 ± 0.06 µM; EC50 [7]: 11.1 ± 4.3 µM; EC50 (HIV-1 M184V): 0.095 ± 0.04 µM; EC90 (HIV-1/LAI): 0.02 µM; EC50 (WT (LAI) HIV-1): 0.126 ± 0.04 µM
CC(C)(CO)Nc1nc(N)nc2c1ncn2[C@H]1CC(N=[N+]=[N-])[C@@H](CO)O1 (stereo partly shown) [drawing 50]	> 100 µM	> 100 µM	> 100 µM	> 100 µM	> 100 µM	> 10 µM	> 10 µM	–
COCCNc1nc(N)nc2c1ncn2[C@H]1CC(N=[N+]=[N-])[C@@H](CO)O1 (stereo partly shown) [drawing 58]	> 100 µM	> 100 µM	> 100 µM	–	–	> 10 µM	> 10 µM	–
CC(CO)Nc1nc(N)nc2c1ncn2[C@H]1CC(N=[N+]=[N-])[C@@H](CO)O1 (stereo partly shown) [drawing 51]	> 100 µM	> 100 µM	> 100 µM	> 100 µM	> 100 µM	> 10 µM	> 10 µM	–
Nc1ccn([C@H]2CS[C@@H](CO)O2)c(=O)n1 [Compound 3TC, (−)-2′,3′-dideoxy-3′-thiacytidine, reference compound]	> 100 µM	> 100 µM	> 100 µM	–	–	–	–	EC90 (HBV): < 10 µM; EC50 (HIV-2/pROD10): 0.075 µM; EC90 (HIV-2/pROD10): 0.42 µM
CN(C)c1nc(N)nc2c1ncn2[C@H]1CC(N=[N+]=[N-])[C@@H](CO)O1 (stereo partly shown) [drawing 53]	> 100 µM	> 100 µM	> 100 µM	> 100 µM	> 100 µM	> 10 µM	> 10 µM	–
[N-]=[N+]=NC1C[C@H](n2cnc3c(O)nc(N)nc32)O[C@@H]1CO (stereo partly shown) [Compound 56, 3′-Azido-2′,3′-dideoxyguanosine]	–	–	–	–	–	–	–	major metabolite (PBM cells [8]): RFS-457-TP as the major metabolite; concentration at which phosphorylation reaches steady state (MT-2 cells; MT-2, four different concentrations): 30 µM
[N-]=[N+]=N[C@H]1C[C@H](n2cnc3c(Cl)nc(N)nc32)O[C@@H]1CO [Compound 68, ((2S,3S,5R)-5-(2-amino-6-chloro-9H-purin-9-yl)-3-azidotetrahydrofuran-2-yl)methanol]	–	–	–	–	–	–	–	Deamination in 7 min (0.002 units Adenosine Deaminase) (adenosine deaminase; 7 min): 12.81 ± 1.57%; Deamination in 120 min (0.2 units Adenosine Deaminase) (adenosine deaminase; 120 min): 240.53 ± 5.86%; nucleotides detected (LC/MS) (PBM cells [8]): detection of RFS-457-TP; species not detected (LC/MS) (PBM cells [8]): Neither Compound 6415 nor its phosphates were detected; level of unchanged drug (MT-2 cells; MT-2 cells treated with drug for 30 min): Negligible levels of 6415 were detected; AZG-TP levels compared with AZG treatment (MT-2 cells; MT-2 cells, 4 hr at 50 μM): higher
C=CCNc1nc(N)nc2c1ncn2[C@H]1CC(N=[N+]=[N-])[C@@H](CO)O1 (stereo partly shown) [drawing 47]	> 100 µM	> 100 µM	> 100 µM	> 100 µM	> 100 µM	> 10 µM	> 10 µM	–
C=CCN(C)c1nc(N)nc2c1ncn2[C@H]1CC(N=[N+]=[N-])[C@@H](CO)O1 (stereo partly shown) [drawing 48]	–	> 100 µM	27 µM	> 100 µM	> 100 µM	> 10 µM	> 10 µM	IC50 (Vero cells): 32 µM
[N-]=[N+]=NC1C[C@H](n2cnc3c(NC4CC4)nc(N)nc32)O[C@@H]1CO (stereo partly shown) [drawing 56]	> 100 µM	> 100 µM	> 100 µM	> 100 µM	> 100 µM	> 10 µM	> 10 µM	–
